Assay [1] concerns the target T1, Beta-secretase 1 (Homo sapiens, UniProt P56817). Nature of the assay: Inhibition of human recombinant BACE1. On the set-up: concentration or dose not given beside the values. As to conditions: concentration not given here.
In assay [2] the target is T1, Beta-secretase 1. Nature of the assay: Inhibition of human recombinant BACE1 at 100 uM.

T1 sequence (P56817 whole entry): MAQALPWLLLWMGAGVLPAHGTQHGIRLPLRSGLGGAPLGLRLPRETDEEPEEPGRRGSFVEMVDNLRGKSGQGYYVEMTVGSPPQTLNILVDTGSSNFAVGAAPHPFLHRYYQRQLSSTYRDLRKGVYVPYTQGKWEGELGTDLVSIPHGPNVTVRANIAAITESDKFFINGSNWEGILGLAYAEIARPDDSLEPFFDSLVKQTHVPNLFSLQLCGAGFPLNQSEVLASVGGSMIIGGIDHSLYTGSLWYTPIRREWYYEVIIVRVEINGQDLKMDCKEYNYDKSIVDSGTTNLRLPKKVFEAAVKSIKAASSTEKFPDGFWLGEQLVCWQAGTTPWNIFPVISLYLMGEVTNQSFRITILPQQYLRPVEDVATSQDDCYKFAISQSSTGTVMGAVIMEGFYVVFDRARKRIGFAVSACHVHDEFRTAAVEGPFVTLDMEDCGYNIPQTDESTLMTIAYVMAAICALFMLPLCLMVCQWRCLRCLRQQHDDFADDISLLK

On to `O=C(CN1C(=O)/C(=N\NC(=O)c2cc([N+](=O)[O-])ccc2O)c2ccccc21)NC1CCCCC1`, for which the inhibition on Beta-secretase 1 [1] was 92%. Further, the IC50 at Beta-secretase 1 [2] stood at 4.8 µM. As to `Cc1ccc(NC(=O)CN2C(=O)/C(=N\NC(=O)c3cccc([N+](=O)[O-])c3)c3ccccc32)cc1`, at Beta-secretase 1 [1], the inhibition was determined as 28.8%. With `COc1ccc([N+](=O)[O-])cc1C(=O)N/N=C1\C(=O)N(CC(=O)Nc2ccc(C)cc2)c2ccccc21`, the inhibition at Beta-secretase 1 [1] was 20.2%. Consider `O=C(CN1C(=O)/C(=N\NC(=O)c2cc([N+](=O)[O-])ccc2O)c2ccccc21)Nc1ccc(C(F)(F)F)cc1`, for which the inhibition at Beta-secretase 1 [1] was 74.6%. For `CN1C(=O)/C(=N\NC(=O)c2cc([N+](=O)[O-])ccc2O)c2ccccc21`, the inhibition at Beta-secretase 1 [1] is 14.3%.

For the compound `Cc1ccc(NC(=O)CN2C(=O)/C(=N\NC(=O)c3ccccc3O)c3ccccc32)cc1`, the inhibition on Beta-secretase 1 [1] is 71.1%. Take `O=C1Nc2ccccc2/C1=N/NC(=O)c1cc([N+](=O)[O-])ccc1O`: the inhibition on Beta-secretase 1 [1] is 35.2%.

Regarding `Cc1ccc(NC(=O)CN2C(=O)/C(=N\NC(=O)c3cc([N+](=O)[O-])ccc3O)c3ccccc32)cc1`, the inhibition on Beta-secretase 1 [1] is 84.5%. For the same compound, the IC50 at Beta-secretase 1 [2] came to 2.4 µM.

The term inhibition denotes the drop in the measured response relative to a control, in per cent. By IC50 is commonly meant the concentration that gives 50% inhibition.
